From paper PMC12140300, “Development of Carbon‐11 Labeled Pyrimidine Derivatives as Novel Positron Emission Tomography (PET) Agents Enabling Brain Sigma‐1 Receptor Imaging” (Advanced Science, 2025)

Assays:
Experiment in all cases: PDSP radioligand assay
Type in all cases: binding
5-HT1E = biological target: T1, 5-HT1E (Homo sapiens, UniProt P28566)
T1 construct: purchased NIMH Psychoactive Drug Screening Program (PDSP)
Experimental: (§1) The ex vivo binding affinities of σRs of CNY‐01 and CNY‐02 were measured using a competitive radioligand binding assay.^[ [35] ^]
(§2) Details of individual binding assay conditions and protocols are available at the NIMH PDSP website: https://pdsp.unc.edu/pdspweb/.

5-HT2A = 5-HT2A (Homo sapiens, UniProt P28223)
Chain of 5-HT2A (P28223 whole entry, species assumed): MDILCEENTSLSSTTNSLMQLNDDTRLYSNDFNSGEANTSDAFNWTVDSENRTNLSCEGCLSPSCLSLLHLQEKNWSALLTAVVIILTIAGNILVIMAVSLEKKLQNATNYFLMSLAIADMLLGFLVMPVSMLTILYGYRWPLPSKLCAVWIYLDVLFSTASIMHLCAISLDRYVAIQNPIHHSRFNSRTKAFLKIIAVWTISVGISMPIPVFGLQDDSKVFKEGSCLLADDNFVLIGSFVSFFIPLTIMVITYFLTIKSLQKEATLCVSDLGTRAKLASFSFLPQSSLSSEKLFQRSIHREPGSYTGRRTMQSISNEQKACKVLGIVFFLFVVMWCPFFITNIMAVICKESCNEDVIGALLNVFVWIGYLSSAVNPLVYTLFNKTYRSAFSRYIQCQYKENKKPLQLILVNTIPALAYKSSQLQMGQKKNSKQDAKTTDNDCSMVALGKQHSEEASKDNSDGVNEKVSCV
Experimental: as §1, §2

5-HT6 = biological target: T2, 5-HT6 (Homo sapiens, UniProt P50406)
T2 construct: purchased NIMH Psychoactive Drug Screening Program (PDSP)
Experimental: as §1, §2

Alpha1B = biological target: T3, Alpha1B (Homo sapiens, UniProt P35368)
T3 construct: purchased NIMH Psychoactive Drug Screening Program (PDSP)
Experimental: as §1, §2

Alpha1D = biological target: T4, Alpha1D (Homo sapiens, UniProt P25100)
T4 construct: purchased NIMH Psychoactive Drug Screening Program (PDSP)
T4 sequence (P25100 whole entry): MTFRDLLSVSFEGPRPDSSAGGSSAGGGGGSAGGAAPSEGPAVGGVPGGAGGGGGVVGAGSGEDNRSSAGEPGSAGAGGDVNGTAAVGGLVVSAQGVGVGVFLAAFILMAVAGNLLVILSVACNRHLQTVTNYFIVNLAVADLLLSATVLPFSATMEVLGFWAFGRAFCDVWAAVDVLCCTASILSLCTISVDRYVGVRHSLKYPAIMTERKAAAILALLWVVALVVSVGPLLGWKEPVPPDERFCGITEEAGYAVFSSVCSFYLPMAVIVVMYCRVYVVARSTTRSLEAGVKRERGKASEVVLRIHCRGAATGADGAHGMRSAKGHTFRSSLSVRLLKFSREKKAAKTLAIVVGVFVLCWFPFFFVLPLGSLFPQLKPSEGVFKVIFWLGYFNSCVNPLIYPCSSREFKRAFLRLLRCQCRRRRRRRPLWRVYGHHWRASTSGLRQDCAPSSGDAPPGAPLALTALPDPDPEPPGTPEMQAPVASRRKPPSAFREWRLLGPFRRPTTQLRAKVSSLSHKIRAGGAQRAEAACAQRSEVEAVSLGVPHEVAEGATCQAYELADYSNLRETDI
Experimental: as §1, §2

Alpha2C = biological target: T5, Alpha2C (Homo sapiens, UniProt P18825)
T5 sequence (P18825 1-462): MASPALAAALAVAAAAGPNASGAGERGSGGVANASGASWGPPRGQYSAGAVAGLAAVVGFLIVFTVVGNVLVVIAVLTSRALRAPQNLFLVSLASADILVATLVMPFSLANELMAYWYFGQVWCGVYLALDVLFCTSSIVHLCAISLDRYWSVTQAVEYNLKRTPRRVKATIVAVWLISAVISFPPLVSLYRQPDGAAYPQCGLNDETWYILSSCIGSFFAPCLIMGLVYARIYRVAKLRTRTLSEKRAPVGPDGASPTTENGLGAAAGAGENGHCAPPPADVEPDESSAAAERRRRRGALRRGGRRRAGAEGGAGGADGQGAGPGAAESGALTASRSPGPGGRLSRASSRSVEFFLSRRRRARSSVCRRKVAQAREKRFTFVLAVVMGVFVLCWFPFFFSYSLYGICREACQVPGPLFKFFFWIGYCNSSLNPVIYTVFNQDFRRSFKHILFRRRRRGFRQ
Experimental: as §1, §2

Beta2 = biological target: T6, Beta2 (Homo sapiens, UniProt P07550)
T6 construct: purchased NIMH Psychoactive Drug Screening Program (PDSP)
Experimental: as §1, §2

Beta3 = biological target: T7, Beta3 (Homo sapiens, UniProt P13945)
T7 construct: purchased NIMH Psychoactive Drug Screening Program (PDSP)
Experimental: as §1, §2

D4 = biological target: T8, D4 (Homo sapiens, UniProt P21917)
T8 construct: purchased NIMH Psychoactive Drug Screening Program (PDSP)
T8 sequence (P21917 whole entry): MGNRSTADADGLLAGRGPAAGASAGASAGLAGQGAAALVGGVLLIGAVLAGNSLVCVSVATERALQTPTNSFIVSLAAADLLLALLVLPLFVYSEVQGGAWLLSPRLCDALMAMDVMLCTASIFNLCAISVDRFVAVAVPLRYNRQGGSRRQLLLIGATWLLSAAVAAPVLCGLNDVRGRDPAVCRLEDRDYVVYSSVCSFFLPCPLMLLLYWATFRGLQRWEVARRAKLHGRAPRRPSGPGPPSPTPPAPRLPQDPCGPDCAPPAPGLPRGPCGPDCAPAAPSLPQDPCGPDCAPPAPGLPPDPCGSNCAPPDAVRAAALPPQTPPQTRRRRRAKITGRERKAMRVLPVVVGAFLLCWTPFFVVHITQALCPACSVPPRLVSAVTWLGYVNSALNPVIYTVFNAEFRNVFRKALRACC
Experimental: as §1, §2

D5 = D5 (Homo sapiens, UniProt P21918)
Chain of D5 (P21918 whole entry): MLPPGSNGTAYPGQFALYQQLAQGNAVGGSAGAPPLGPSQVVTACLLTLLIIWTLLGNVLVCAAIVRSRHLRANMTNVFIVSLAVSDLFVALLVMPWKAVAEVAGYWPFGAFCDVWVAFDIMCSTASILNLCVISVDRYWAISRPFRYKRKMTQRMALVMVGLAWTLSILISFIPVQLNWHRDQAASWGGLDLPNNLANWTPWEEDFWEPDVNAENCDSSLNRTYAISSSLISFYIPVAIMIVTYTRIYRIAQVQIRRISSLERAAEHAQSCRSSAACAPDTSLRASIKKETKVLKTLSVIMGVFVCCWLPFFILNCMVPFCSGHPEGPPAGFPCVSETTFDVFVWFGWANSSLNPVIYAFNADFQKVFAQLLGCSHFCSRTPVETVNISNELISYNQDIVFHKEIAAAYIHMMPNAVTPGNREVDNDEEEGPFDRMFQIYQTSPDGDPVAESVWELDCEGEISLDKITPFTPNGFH
Experimental: as §1, §2

H1 = H1 (Homo sapiens, UniProt P35367)
Chain of H1 (P35367 whole entry): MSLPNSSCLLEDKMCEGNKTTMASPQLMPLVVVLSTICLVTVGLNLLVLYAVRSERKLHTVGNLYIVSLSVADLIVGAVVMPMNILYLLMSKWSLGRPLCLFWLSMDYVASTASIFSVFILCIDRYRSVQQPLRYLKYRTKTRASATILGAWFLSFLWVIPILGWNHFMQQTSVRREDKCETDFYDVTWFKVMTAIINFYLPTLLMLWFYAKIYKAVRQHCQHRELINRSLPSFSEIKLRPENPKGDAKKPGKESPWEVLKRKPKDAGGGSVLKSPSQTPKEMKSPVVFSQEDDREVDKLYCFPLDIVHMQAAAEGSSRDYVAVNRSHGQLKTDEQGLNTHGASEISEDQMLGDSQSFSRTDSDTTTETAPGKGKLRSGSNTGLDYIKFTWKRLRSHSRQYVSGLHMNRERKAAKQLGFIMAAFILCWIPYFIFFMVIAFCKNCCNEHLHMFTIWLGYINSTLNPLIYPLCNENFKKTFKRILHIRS
Experimental: as §1, §2

H2 = H2 (Homo sapiens, UniProt P25021)
Chain of H2 (P25021 whole entry): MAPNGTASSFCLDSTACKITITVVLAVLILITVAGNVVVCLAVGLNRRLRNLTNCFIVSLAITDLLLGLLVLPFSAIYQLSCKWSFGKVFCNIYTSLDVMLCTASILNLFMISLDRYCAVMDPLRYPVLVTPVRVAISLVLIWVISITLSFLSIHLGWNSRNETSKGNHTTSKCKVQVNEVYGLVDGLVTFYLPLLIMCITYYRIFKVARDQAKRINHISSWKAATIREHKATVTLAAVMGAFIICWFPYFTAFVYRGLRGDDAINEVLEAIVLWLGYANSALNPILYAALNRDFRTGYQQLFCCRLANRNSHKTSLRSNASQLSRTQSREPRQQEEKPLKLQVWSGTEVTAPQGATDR
Experimental: as §1, §2

H3 = H3 (Homo sapiens, UniProt Q9Y5N1)
Chain of H3 (Q9Y5N1 whole entry): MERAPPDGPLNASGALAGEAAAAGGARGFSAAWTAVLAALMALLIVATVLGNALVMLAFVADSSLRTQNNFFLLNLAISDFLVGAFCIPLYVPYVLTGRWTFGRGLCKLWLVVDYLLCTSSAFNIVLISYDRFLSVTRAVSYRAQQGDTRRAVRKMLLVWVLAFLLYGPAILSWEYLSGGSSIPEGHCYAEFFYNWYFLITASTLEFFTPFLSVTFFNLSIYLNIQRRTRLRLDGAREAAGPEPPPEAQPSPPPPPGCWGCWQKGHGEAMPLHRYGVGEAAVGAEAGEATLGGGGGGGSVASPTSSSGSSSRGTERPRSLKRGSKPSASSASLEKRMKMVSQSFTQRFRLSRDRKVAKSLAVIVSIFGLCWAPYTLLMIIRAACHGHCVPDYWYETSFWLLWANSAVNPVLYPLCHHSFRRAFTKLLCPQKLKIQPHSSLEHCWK
Experimental: as §1, §2

KOR = KOR (Homo sapiens, UniProt P41145)
Chain of KOR (P41145 whole entry): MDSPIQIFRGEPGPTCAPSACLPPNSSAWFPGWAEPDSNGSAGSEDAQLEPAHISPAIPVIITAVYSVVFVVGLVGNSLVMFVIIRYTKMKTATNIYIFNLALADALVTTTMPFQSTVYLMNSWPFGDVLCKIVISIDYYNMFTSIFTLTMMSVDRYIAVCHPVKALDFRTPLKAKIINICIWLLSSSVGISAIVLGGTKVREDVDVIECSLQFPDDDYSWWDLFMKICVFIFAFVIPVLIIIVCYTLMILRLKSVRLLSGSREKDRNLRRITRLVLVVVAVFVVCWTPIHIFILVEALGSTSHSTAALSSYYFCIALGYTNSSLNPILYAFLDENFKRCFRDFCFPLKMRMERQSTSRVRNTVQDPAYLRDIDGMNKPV
Experimental: as §1, §2

M1 = biological target: T9, M1 (Homo sapiens, UniProt P11229)
T9 construct: purchased NIMH Psychoactive Drug Screening Program (PDSP)
Experimental: as §1, §2

M2 = biological target: T10, M2 (Homo sapiens, UniProt P08172)
T10 construct: purchased NIMH Psychoactive Drug Screening Program (PDSP)
Experimental: as §1, §2

M3 = M3 (Homo sapiens, UniProt P20309)
Chain of M3 (P20309 whole entry): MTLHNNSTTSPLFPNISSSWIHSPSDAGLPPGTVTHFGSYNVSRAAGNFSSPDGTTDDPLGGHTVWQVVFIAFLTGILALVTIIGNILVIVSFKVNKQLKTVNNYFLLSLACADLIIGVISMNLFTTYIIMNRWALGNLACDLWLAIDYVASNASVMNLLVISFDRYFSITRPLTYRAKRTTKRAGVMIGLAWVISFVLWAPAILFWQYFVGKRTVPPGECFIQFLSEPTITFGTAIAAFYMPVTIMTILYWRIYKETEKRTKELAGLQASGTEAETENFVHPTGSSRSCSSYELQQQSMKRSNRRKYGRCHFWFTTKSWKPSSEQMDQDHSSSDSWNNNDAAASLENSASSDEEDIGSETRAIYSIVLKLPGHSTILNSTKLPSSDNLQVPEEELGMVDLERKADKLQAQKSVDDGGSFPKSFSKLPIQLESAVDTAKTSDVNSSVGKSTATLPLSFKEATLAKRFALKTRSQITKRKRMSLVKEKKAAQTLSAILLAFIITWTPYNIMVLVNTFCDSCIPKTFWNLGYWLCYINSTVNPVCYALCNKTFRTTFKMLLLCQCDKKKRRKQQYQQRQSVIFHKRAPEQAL
Experimental: as §1, §2

M4 = biological target: T11, M4 (Homo sapiens, UniProt P08173)
T11 construct: purchased NIMH Psychoactive Drug Screening Program (PDSP)

M5 = biological target: T12, M5 (Homo sapiens, UniProt P08912)
T12 sequence (P08912 1-532): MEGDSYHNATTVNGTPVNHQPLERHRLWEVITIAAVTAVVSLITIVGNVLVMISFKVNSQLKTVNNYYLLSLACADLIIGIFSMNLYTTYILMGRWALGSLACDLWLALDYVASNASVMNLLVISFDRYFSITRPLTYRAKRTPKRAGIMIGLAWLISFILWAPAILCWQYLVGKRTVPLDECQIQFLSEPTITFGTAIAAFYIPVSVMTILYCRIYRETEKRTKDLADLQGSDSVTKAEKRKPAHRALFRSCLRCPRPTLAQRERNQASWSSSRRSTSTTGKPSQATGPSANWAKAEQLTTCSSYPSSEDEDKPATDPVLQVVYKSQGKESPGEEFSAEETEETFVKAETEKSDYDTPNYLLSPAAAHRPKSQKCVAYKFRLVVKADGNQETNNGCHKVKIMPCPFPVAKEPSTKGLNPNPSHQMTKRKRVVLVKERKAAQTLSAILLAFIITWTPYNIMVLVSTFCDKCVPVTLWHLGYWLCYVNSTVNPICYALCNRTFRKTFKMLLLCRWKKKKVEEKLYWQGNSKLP

MOR = biological target: T13, MOR (Homo sapiens, UniProt P35372)
T13 construct: purchased NIMH Psychoactive Drug Screening Program (PDSP)

NET = NET (Homo sapiens, UniProt P23975)
Chain of NET (P23975 whole entry): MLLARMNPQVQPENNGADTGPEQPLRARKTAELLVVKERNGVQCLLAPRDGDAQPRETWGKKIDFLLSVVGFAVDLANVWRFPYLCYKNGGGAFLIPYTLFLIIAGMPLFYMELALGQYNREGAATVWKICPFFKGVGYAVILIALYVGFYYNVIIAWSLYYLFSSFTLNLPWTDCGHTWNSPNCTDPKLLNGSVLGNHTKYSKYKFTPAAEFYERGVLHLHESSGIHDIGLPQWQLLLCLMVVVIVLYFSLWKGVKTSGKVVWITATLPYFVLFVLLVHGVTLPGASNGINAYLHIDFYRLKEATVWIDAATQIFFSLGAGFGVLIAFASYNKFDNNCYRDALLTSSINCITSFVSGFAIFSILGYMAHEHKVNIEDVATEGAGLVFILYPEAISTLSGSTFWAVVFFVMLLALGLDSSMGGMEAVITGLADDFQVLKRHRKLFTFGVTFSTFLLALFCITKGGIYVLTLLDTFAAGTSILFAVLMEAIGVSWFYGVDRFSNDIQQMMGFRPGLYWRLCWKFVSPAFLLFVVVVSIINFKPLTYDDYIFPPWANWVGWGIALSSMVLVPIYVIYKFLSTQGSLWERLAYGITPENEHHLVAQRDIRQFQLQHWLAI

PBR = biological target: T14, PBR (Rattus norvegicus, UniProt P16257)
T14 construct: purchased NIMH Psychoactive Drug Screening Program (PDSP)

SERT = biological target: T15, SERT (Homo sapiens, UniProt P31645)
T15 construct: purchased NIMH Psychoactive Drug Screening Program (PDSP)

Row | SMILES | inhibition at 10 µM (5-HT1E) [%] | inhibition at 10 µM (5-HT2A) [%] | inhibition at 10 µM (5-HT6) [%] | inhibition at 10 µM (Alpha1B) [%] | inhibition at 10 µM (Alpha1D) [%] | Ki (Alpha2C) [nM] | inhibition at 10 µM (Alpha2C) [%] | inhibition at 10 µM (Beta2) [%] | inhibition at 10 µM (Beta3) [%] | inhibition at 10 µM (D4) [%] | inhibition at 10 µM (D5) [%] | inhibition at 10 µM (H1) [%] | Ki (H2) [nM] | inhibition at 10 µM (H2) [%] | inhibition at 10 µM (H3) [%] | inhibition at 10 µM (KOR) [%] | inhibition at 10 µM (M1) [%] | inhibition at 10 µM (M2) [%] | inhibition at 10 µM (M3) [%] | inhibition at 10 µM (M4) [%] | other results
1 | COc1ccc(-c2nc(C)c(Cl)c(OCCCN3CCCCC3)n2)cc1 [CNY-01, 5‐chloro‐2‐(4‐methoxyphenyl)‐4‐methyl‐6‐(3‐(piperidin‐1‐yl)propoxy)pyrimidine] | 31.2 | 36.3 | 30.1 | -11.4 | 23 | 430 | 85.1 | 4.03 | 9.11 | 48 | 27.2 | 93.2 | 709 | 89.7 | 62.8 | 61.1 | 22.3 | 36.4 | 16.3 | 20.6 | Ki (H1): 667 nM; Ki (H3): 1060 nM; Ki (KOR): 1060 nM; Ki (M5): > 10000 nM; inhibition at 10 µM (M5): 59.1%; inhibition at 10 µM (MOR): -16.4%; Ki (NET): 2100 nM; inhibition at 10 µM (NET): 50.4%; inhibition at 10 µM (PBR): 25.8%; inhibition at 10 µM (SERT): 21.8%
2 | Cc1nc(-c2ccc(Cl)cc2)nc(OCCCN2CCN(C)CC2)c1Cl [CNY-02, 5‐chloro‐2‐(4‐chlorophenyl)‐4‐methyl‐6‐(3‐(4‐methylpiperazin‐1‐yl)propoxy)pyrimidine] | 27.8 | 85.5 | 28.1 | -26.1 | -14.8 | 3770 | 52.4 | 11.7 | -3.01 | 17.8 | 58 | 43.7 | 1240 | 84.9 | 42.9 | 20.4 | 36 | 29.1 | 54 | 31.1 | Ki (5-HT2A): 466 nM; Ki (D5): > 10000 nM; Ki (M3): 727 nM; Ki (M5): 2500 nM; inhibition at 10 µM (M5): 83.3%; inhibition at 10 µM (MOR): -14.4%; inhibition at 10 µM (NET): 0.14%; inhibition at 10 µM (PBR): 26%; inhibition at 10 µM (SERT): 43%
